Results from US5362873A, “Tetrahydropyridine derivatives” (Shionogi & Co., Ltd., priority 1990, dated 1994).
pKi: −log10 of the molar value.

Experiments:
5HT2 receptor = biological target: T1, 5HT2 receptor (Rattus norvegicus, UniProt P14842); experiment: 5HT2 receptor binding ([3H]spiroperidol); conditions: [3H]spiroperidol 1 nM, rat cortex tissue, pH 7.4, 37° C., 15 minutes
T1 construct: receptor preparation (cortex tissue, 0.5 mg protein/ml); from tissue; host or cells: rat cortex membranes
Experimental: (§1) After the decapitation of rats the objective tissues were rapidly removed and each was weighed. Each tissue was homogenized with twenty-fold amount of ice-cold 50 mM […] buffer (pH7.8) homogenized, and centrifuged at 40,000×g for 10 minutes. The supernatant was removed and pellets were then resuspended in the buffer and recentrifuged. The procedure is repeated 3 times. Then these obtained samples were freeze-dried in liquid nitrogen and preserved at -80° C. On the test day the sample was thawed at room temperature and centrifuged at 40,000×g for 10 minutes, the pellets were then suspended in an incubation buffer and used as the receptor preparation. The preparation was added to the mixture containing the labelled ligand and the test drug, and filtered through Whatman GF/C filters and washed to terminate the reaction. Radioactivity on the filters was determined by a liquid scintillation counter and Ki value was calculated.
5HT2 receptor binding was initiated by the addition of the receptor preparation (cortex tissue, 0.5 mg protein/ml) to a mixture containing 1 nM of [^3 H]spiroperidol and the test compound dissolved in 50 mM Tris-HCl buffer (pH 7.4). Incubation was carried out at 37° C. for 15 minutes. Specific 5HT2 receptor binding was defined as the difference in amount of [^3 H]spiroperidol bound to the tissue in the presence or the absence of 1 mM serotonin.

PCP receptor = PCP receptor binding ([3H]TCP); conditions: [3H]TCP 5 nM, rat cortex tissue, pH 7.8, 25° C., 30 minutes
Experimental: as §1
PCP receptor binding was initiated by the addition of the receptor preparation (cortex tissue, 0.2 mg protein/ml) to a mixture containing 5 nM of [^3 H]TCP and the test compound dissolved in 5 mM Tris-HCl buffer (pH 7.8). Incubation was carried out at 25° C. for 30 minutes. Specific PCP receptor binding was defined as the difference in amount of [^3 H]TCP bound to the tissue in the presence or the absence of 10 μM PCP.

DA2 receptor = biological target: T2, DA2 receptor (Rattus norvegicus, UniProt P61169); experiment: DA2 receptor binding ([3H]spiroperidol); conditions: [3H]spiroperidol 0.2 nM, rat striatal tissue, pH 7.4, 37° C., 10 minutes
T2 construct: receptor preparation (striatal tissue, 0.3 mg protein/ml); from tissue; host or cells: rat striatal membranes
Experimental: as §1
DA2 receptor binding was initiated by the addition of the receptor preparation (striatal tissue, 0.3 mg protein/ml) to a mixture containing 0.2 nM of [^3 H]spiroperidol and the test compound dissolved in 50 mM Tris-HCl buffer containing 100 mM-NaCl and 5 mM-KCl (pH 7.4). Incubation was carried out at 37° C. for 10 minutes. Specific DA2 receptor binding was defined as the difference in amount of [^3 H]spiroperidol bound to the tissue in the presence or the absence of 10 μM haloperidol.

σ receptor = σ receptor binding ([3H]3PPP); conditions: [3H]3PPP 5 nM, rat cortex tissue, pH 7.8, 25° C., 90 minutes
Experimental: as §1
Sigma receptor binding was initiated by the addition of the receptor preparation (cortex tissue, 0.7 mg protein/ml) to a mixture containing 5 nM of [^3 H]3PPP [3-hydroxyphenyl-N-(1-propyl)piperidine] and the test compound dissolved in 50 mM Tris-HCl buffer (pH 7.8). Incubation was carried out at 25° C. for 90 minutes. Specific sigma receptor binding was defined as the difference in amount of [^3 H]3PPP bound to the tissue in the presence or the absence of 10 μM haloperidol.

σ receptors = conditions: prior art, in words; cited from earlier work
dopamine receptors = conditions: prior art, in words; cited from earlier work

T2 sequence (P61169 whole entry): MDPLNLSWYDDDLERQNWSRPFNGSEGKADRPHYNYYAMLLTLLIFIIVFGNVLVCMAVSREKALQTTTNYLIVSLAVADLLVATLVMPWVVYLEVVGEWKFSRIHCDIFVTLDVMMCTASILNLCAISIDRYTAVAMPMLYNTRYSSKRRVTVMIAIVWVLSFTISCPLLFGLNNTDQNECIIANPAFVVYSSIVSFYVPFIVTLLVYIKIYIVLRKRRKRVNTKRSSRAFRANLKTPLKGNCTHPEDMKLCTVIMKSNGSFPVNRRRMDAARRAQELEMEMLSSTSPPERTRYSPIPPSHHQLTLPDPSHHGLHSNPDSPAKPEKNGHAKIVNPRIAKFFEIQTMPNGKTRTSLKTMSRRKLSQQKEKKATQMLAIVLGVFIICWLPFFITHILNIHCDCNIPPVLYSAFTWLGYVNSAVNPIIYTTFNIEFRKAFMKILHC
T1 sequence (P14842 whole entry): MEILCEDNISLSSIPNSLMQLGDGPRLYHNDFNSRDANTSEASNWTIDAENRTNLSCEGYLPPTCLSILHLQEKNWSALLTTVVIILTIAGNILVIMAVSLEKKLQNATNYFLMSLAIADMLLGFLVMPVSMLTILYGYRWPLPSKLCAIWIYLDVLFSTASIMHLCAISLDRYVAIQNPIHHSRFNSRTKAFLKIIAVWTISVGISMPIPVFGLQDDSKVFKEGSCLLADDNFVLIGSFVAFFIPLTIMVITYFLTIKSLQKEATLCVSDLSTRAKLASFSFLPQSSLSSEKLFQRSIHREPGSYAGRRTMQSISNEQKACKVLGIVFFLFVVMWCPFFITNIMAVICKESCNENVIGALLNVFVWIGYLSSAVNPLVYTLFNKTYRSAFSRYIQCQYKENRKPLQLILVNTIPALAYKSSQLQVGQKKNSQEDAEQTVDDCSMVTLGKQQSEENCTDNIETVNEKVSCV

SMILES	pKi (5HT2 receptor)	pKi (PCP receptor)	pKi (DA2 receptor)	pKi (σ receptor)	affinity to σ receptors (σ receptors)	affinity to dopamine receptors (dopamine receptors)
Cc1ccc(C2=CCN(CCCN3CCOCC3)CC2)cc1 [I a-101]	5.11	< 4.20	5.74	9.51		
O=C1CCCN1C(=O)NCCCCCN1CC=C(c2ccc(C(F)(F)F)cc2)CC1 [I a-13]	6.11	4.59	6.49	8.66		
Cc1ccc(C2=CCN(CCCN(CC(C)C)CC(C)C)CC2)cc1 [I a-24]	6.42	4.49	5.96	8.24		
CC(C)(C)c1ccc(C2=CCN(CCCC(=O)N3CCCC3=O)CC2)cc1 [I a-8]	5.54	< 4.21	5.92	8.89		
Cc1ccc(C2=CCN(CCCN3CCC(C)CC3)CC2)cc1 [I a-57]	6.85	4.36	5.62	8.20		
CNCCCN1CC=C(c2ccc(C(C)(C)C)cc2)CC1 [I a-30, 1-[(3-methylamino)propyl]-4-(4-tert-butylphenyl)-1,2,5,6-tetrahydropyridine]	5.43	< 4.20	5.70	8.89		
FC(F)(F)c1ccc(C2=CCN(CCCOc3ccc(Cl)c(Cl)c3)CC2)cc1 [I a-111, 1-{3-(3,4-Dichlorophenoxy)propyl}-4-(4-trifluoromethylphenyl)-1,2,5,6-tetrahydropyridine]	6.41	< 4.20	6.20	8.54		
O=C(CCCN1CC=C(c2ccc(C(F)(F)F)cc2)CC1)N1CCCC1=O [I a-9]	5.92	4.48	5.80	8.21		
O=C1CCCN1C(=O)NCCCN1CC=C(c2ccc(C(F)(F)F)cc2)CC1 [I a-2]	6.26	4.51	5.33	8.39		
CC(C)(C)c1ccc(C2=CCN(CCCN3CCSCC3)CC2)cc1 [I a-94]	5.72	4.57	5.85	8.89		
CC1CCN(CCCN2CC=C(c3ccc(C(C)(C)C)cc3)CC2)CC1 [I a-56]	5.05	4.36	5.35	8.19		
CC(C)(C)c1ccc(C2=CCN(CCCN3CCOCC3)CC2)cc1 [I a-35, 4-[3-{4-(4-tert-butylphenyl)-1,2,5,6-tetrahydropyridin-1-yl}propyl]morpholine]	5.49	4.74	5.34	8.74		
Clc1ccc(C2=CCN(CCCN3CCOCC3)CC2)cc1 [I a-102]	5.24	< 4.15	5.49	9.15		
CCCc1ccc(C2=CCN(CCCNC(=O)N3CCCC3=O)CC2)cc1 [I a-3]	5.77	4.82	5.40	8.02		
CC(C)(C)c1ccc(C2=CCN(CCCNC(=O)N3CCCC3=O)CC2)cc1 [I a-6]	5.60	4.31	5.66	8.57		
C[C@@H]1CN(CCCn2c3ccccc3c3ccccc32)C[C@H](C)N1 [rimcazole]					high affinity	low affinity
CC(C)(C)c1ccc(C2=CCN(CCCNC(=O)N3CCCC3)CC2)cc1 [I a-11]	5.36	4.64	5.35	8.59		
OC(CCCN1CCN(c2ncc(F)cn2)CC1)c1ccc(F)cc1 (centres unmarked) [BMY 148021]					high affinity	low affinity
